Experimental data from paper PMC9774939, “Optimization of Pyrazole Compounds as Antibiotic Adjuvants Active against Colistin- and Carbapenem-Resistant Acinetobacter baumannii” (Antibiotics, 2022).
Like-named read-outs stand apart in the source and are kept apart here.

Assays:
[1] = system: K. pneumoniae ATCC 13833; experiment: Chequerboard analysis with colistin; type: cell-based, Klebsiella pneumoniae; details: combination with colistin; synergy when ≤0.5
Description: (§1) The chequerboard analysis is a two-dimensional array in which individual microplate wells contain a unique combination of the concentrations of the tested compound and colistin. Tested concentrations of the compound ranged from 64 to 0.06 μg/mL along the x-axis, whereas polymyxin E1 concentrations ranged from 2 to 0.03 μg/mL (or 32–0.5 μg/mL when polymyxin E1-resistant clinical isolates were used) and varied along the y-axis. Determining the fractional inhibitory concentration (FIC) of both compounds and computing the average FIC index allowed us to determine whether a synergistic, additive, or antagonistic activity between the tested compounds could be observed. A synergistic activity occurred when the average FIC index was equal to or less than 0.5 [21, 27].

[2] = system: eight reference strains, Gram-positive and Gram-negative; parameters: method as in PMID 32435403; details: parent compound; cited from earlier work
[3] = system: A. baumannii N50; experiment: Chequerboard analysis with colistin; type: cell-based, Acinetobacter baumannii; details: combination with colistin; MDR, colistin-resistant isolate
Description: (§2) Carbapenem-resistant, colistin-resistant, and XDR clinical isolates were kindly provided by Prof. Gian Maria Rossolini (University of Florence, Italy). Klebsiella pneumoniae SI-004Bo is a KPC-producing, pandrug-resistant isolate (KKBO-4 [17]) selected in vivo during colistin therapy (colistin resistance mechanism, IS-mediated insertional inactivation of mgrB). Acinetobacter baumannii N50 is an OXA-24-producing clinical isolate resistant to all β-lactams, aminoglycosides, and fluoroquinolones.
as §1

[4] = Hemolytic activity; type: cell-based; details: 0.025–10 μg of compound
Description: The hemolytic activity of compounds 1, 2, 8, 9, 45, and 49 (0.025–10 μg) was investigated using the method described by Bechlars et al.. Triton X-100 was used as the hemolysis control and DMSO as the negative control.

[5] = system: Klebsiella pneumoniae ATCC 13833; parameters: method as in PMID 32435403; details: parent compounds, cited from earlier work; for MAC Kpn: in the presence of 0.5 × MIC colistin; for MIC/MAC Ratio Kpn: minimal ratio
[6] = system: Acinetobacter baumannii ATCC 17978; parameters: method as in PMID 32435403; details: parent compounds, cited from earlier work; for MAC Aba: in the presence of 0.5 × MIC colistin; for MIC/MAC Ratio Aba: minimal ratio
[7] = system: K. pneumoniae SI-004Bo; experiment: Chequerboard analysis with colistin; type: cell-based, Klebsiella pneumoniae; details: combination with colistin; pandrug-resistant, colistin-resistant isolate
Description: as §2, §1

[8] = system: E. coli CCUG^T; experiment: Chequerboard analysis with colistin; type: cell-based, Escherichia coli; details: combination with colistin; synergy when ≤0.5
Description: as §1

[9] = system: A. baumannii ATCC 17978; experiment: Chequerboard analysis with colistin; type: cell-based, Acinetobacter baumannii; details: combination with colistin; synergy when ≤0.5
Description: as §1

[10] = system: Escherichia coli CCUG^T; parameters: method as in PMID 32435403; details: parent compounds, cited from earlier work; for MAC Eco: in the presence of 0.5 × MIC colistin; for MIC/MAC Ratio Eco: minimal ratio
[11] = Membrane integrity assay (LDH release); type: cell-based; details: human, HeLa cells; tested alone, 24 h exposure; read-out: IC50 cytotoxicity (membrane-damaging activity, LDH release)
Description: The potential cytotoxic activity of compounds was evaluated using the commercially available integrity assay (CytoTox 96® non-radioactive cytotoxicity assay, Promega). The compounds were tested for their ability to induce the lysis of HeLa cells by measuring the release of lactate dehydrogenase (LDH) after incubating the HeLa cell cultures (20,000 cells/well) for 24 h (37 °C, 5% CO2) in DMEM (Dulbecco’s Modified Eagle Medium) supplemented with 10% fetal bovine serum, 4.5 mg/mL glucose, and 2 mM L-glutamine in the absence and presence of varying concentrations of the compounds (up to 256 µg/mL). Further controls included samples containing the medium only or in which cell lysis was induced by the addition of 9% Triton X-100 (maximum LDH release control). The percentage of cytotoxicity was computed as 100 × (sample LDH release)/(maximum LDH release). The variation of the percentage of cytotoxicity allowed us to compute an IC50 value (compound concentration inducing 50% cytotoxicity).

[12] = system: Acinetobacter baumannii ATCC 17978; experiment: MAC determination in the presence of subinhibitory colistin; type: cell-based; details: for MAC Aba: in the presence of 0.5 × MIC colistin; for MIC/MAC Ratio Aba: minimal ratio of MIC of compound alone to MAC with 0.5 × MIC colistin
Description: (§3) The minimum inhibitory concentration (MIC) and minimum bactericidal concentration (MBC) of the compounds were determined in triplicate using Mueller–Hinton broth and a bacterial inoculum of 5 × 10^5 CFU/mL, as recommended by the CLSI [26]. The minimum antibacterial concentration (MAC) of the compounds was determined in the presence of a fixed and subinhibitory concentration of colistin (as mentioned above).

[13] = system: Acinetobacter baumannii N50; experiment: MBC determination in the presence of colistin; type: cell-based; details: in the presence of 2 µg/mL of colistin
Description: as §3

[14] = system: Escherichia coli CCUG^T; experiment: MAC determination in the presence of subinhibitory colistin; type: cell-based; details: for MAC Eco: in the presence of 0.5 × MIC colistin; for MIC/MAC Ratio Eco: minimal ratio of MIC of compound alone to MAC with 0.5 × MIC colistin
Description: as §3

[15] = system: Klebsiella pneumoniae ATCC 13833; experiment: as above; type: cell-based; parameters: key to MAC Kpn: -: No synergistic activity; details: for MAC Kpn: in the presence of 0.5 × MIC colistin
Description: as §3

[16] = system: HeLa cells; experiment: Cell viability and proliferation assay (RealTime-Glo MT); type: cell-based; details: 16 µg/mL of compound, up to 72 h
Description: The cytotoxicity of the compounds was also evaluated by measuring the number of viable cells in the culture with respect to the control culture (cells treated with DMSO only) using the RealTime-Glo™ MT Cell Viability Assay in the presence of varying concentrations of the compound. The assay is a nonlytic homogeneous, bioluminescent method that can be used to measure cell viability/proliferation in real time using NanoLuc® luciferase and a cell-permeant prosubstrate (MT Cell Viability Substrate). […]

[17] = system: Acinetobacter baumannii N50; experiment: Time-kill curve analysis; type: cell-based
Description: The time-dependent bacterial killing of colistin, compound 9, or a combination thereof was investigated using established methods. Briefly, a culture medium containing a starting inoculum of 5.0 × 10^6 CFU/mL of Acinetobacter baumannii N50 clinical isolate was incubated aerobically at 35 °C under orbital agitation (200 rpm) in Mueller–Hinton broth, in the absence (growth control) or presence of either 2 μg/mL of colistin (a concentration equivalent to the susceptibility breakpoint), 8 µg/mL of compound 9, or both. The bacterial count (expressed in CFU/mL) in the control and antibiotic-containing media was determined every hour for up to 6 h of incubation via serial 10-fold dilution and direct plating of 0.1 mL of the sample on the Mueller–Hinton Agar medium (without antibiotic), which was incubated for 24 h at 35 °C.

Compound	Average FIC Index [1]	Average FIC Index [3]	hemolytic activity [4]	MAC Kpn [5]	MIC/MAC Ratio Kpn [5]	MAC Aba [6]	MIC/MAC Ratio Aba [6]	Average FIC Index [7]	Average FIC Index [8]	Average FIC Index [9]	MAC Eco [10]	MIC/MAC Ratio Eco [10]	MAC Aba [12]	MIC/MAC Ratio Aba [12]	MBC [13]	MAC Eco [14]	MIC/MAC Ratio Eco [14]	MAC Kpn [15]	other results
O=C(NCc1ccc2c(c1)OCO2)c1cnn(-c2ccccc2)c1-n1cccc1 [Compound 1]	0.5	0.5	no hemolytic activity could be observed	64 µg/mL	8	32 µg/mL	16	1	0.5	0.38	64 µg/mL	8	–	–	–	–	–	–	direct antibacterial activity [2]: no direct antibacterial activity was observed
Cc1c(C(=O)N(C)CCN(C)C)nn(-c2ccc(Cl)cc2)c1-n1cccc1 [Compound 2]	0.5	0.4	no hemolytic activity could be observed	32 µg/mL	16	16 µg/mL	32	1	0.31	0.39	64 µg/mL	8	–	–	–	–	–	–	–
O=C(NC12CC3CC(CC(C3)C1)C2)c1cnn(-c2ccccc2)c1-n1cccc1 [Compound 8, N-(Adamantan-1-yl)-1-phenyl-5-(1H-pyrrol-1-yl)-1H-pyrazole-4-carboxamide]	0.5	0.24	no hemolytic activity could be observed	–	–	–	–	1	0.38	0.31	–	–	4 µg/mL	128	> 64 µg/mL	32 µg/mL	16	- ^a	melting point: 167 to 169 °C; IC50 at 24 h [11]: > 256 µg/mL
CC(C)(C)OC(=O)[C@H](Cc1ccccc1)NC(=O)c1cnn(-c2ccccc2)c1-n1cccc1 [Compound 9, tert-Butyl (S)-3-Phenyl-2-[[[1-phenyl-5-(1H-pyrrol-1-yl)-1H-pyrazol-4-yl]carbonyl]amino]propanoate]	0.32	0.23	no hemolytic activity could be observed	–	–	–	–	1	0.33	0.34	–	–	4 µg/mL	128	> 64 µg/mL	8 µg/mL	64	8 µg/mL	proliferation of HeLa cells [16]: not significantly altered; reduction of bacterial population (time-kill) ([17]; 2 µg/mL of colistin and 8 µg/mL of 9, within 5 h): 4 log10; antibacterial activity alone (time-kill) ([17]; 8 µg/mL of 9 alone): does not exhibit antibacterial activity; MIC/MAC Ratio Kpn ([15]; minimal ratio of MIC of compound alone to MAC with 0.5 × MIC colistin): 64
Colistin [reference compound]	–	–	–	–	–	–	–	–	–	–	–	–	–	–	–	–	–	–	bactericidal effect (time-kill) ([17]; colistin alone at 2 µg/mL): not expectedly able to show any bactericidal effect
